Earlier results in patent US6436414B1, “Active ingredient combinations or adducts of biotin and/or biotin derivatives and cyclodextrins and use of such active ingredient combinations in cosmetic preparations” (Beiersdorf AG, priority 1999, dated 2002).

Conditions: according to the literature

Compound: O=C(O)CCCC[C@@H]1SC[C@@H]2NC(=O)N[C@@H]21 [biotin, D-cis-hexahydro-2-oxothieno[3,4-d]imidazole-4-valeric acid]
- solubility limit of biotin in aqueous solution: about 0.04%
